Results as given in the supplement of paper PMC10307832.

Experiments:
Assay in all cases: relative viability (nuclei count vs DMSO), 5 days (fraction); higher = more cells survive
LXF-289 = test system: LXF-289
How it was run: (§1)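 Relative viability equals treated-well nuclei counts divided by vehicle-well nuclei counts. Counts came from 4× images of lung cancer cell lines grown in 1536-well plates for 5 days after pin-tool dosing on the day after seeding. Dosing used one drug alone or a fixed anchor-drug dose plus five library-drug doses (not always all listed) in √10 steps, and values are medians of duplicate plates.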

RERF-LC-KJ = test system: RERF-LC-KJ
How it was run: as §1

NCI-H1792 = test system: NCI-H1792
How it was run: as §1

NCI-H2170 = test system: NCI-H2170
How it was run: as §1

NCI-H2347 = test system: NCI-H2347
How it was run: as §1

NCI-H1355 = test system: NCI-H1355
How it was run: as §1

NCI-H1755 = test system: NCI-H1755
How it was run: as §1

NCI-H596 = test system: NCI-H596
How it was run: as §1

NCI-H727 = test system: NCI-H727
How it was run: as §1

NCI-H1651 = test system: NCI-H1651
How it was run: as §1

SK-MES-1 = test system: SK-MES-1
How it was run: as §1

NCI-H1915 = test system: NCI-H1915
How it was run: as §1

NCI-H460 = test system: NCI-H460
How it was run: as §1

NCI-H322M = test system: NCI-H322M
How it was run: as §1

NCI-H3122 = test system: NCI-H3122
How it was run: as §1

NCI-H520 = test system: NCI-H520
How it was run: as §1

NCI-H441 = test system: NCI-H441
How it was run: as §1

PC-14 = test system: PC-14
How it was run: as §1

**Q.** How did the relative viability (LXF-289; first compound 0.04 µM) turn out when `Clc1ccc(Nc2nnc(Cc3ccncc3)c3ccccc23)cc1` [Vatalanib] + CC1(C)CCC(c2ccc(Cl)cc2)=C(CN2CCN(c3ccc(C(=O)NS(=O)(=O)c4ccc(N[C@H](CCN5CCOCC5)CSc5ccccc5)c(S(=O)(=O)C(F)(F)F)c4)cc3)CC2)C1 [Navitoclax] (partner 0.5 µM) was run?
**A.** 0.971

**Q.** And the relative viability (LXF-289; first compound 0.1265 µM)?
**A.** 0.901

**Q.** And the relative viability (LXF-289; first compound 0.4 µM)?
**A.** 0.989

**Q.** And the relative viability (LXF-289; first compound 1.265 µM)?
**A.** 0.852

**Q.** And the relative viability (LXF-289; first compound 4 µM)?
**A.** 0.899

**Q.** And the relative viability (RERF-LC-KJ; first compound 0.04 µM)?
**A.** 1.1

**Q.** And the relative viability (RERF-LC-KJ; first compound 0.1265 µM)?
**A.** 0.959

**Q.** What about the relative viability (RERF-LC-KJ; first compound 0.4 µM) of the same compound?
**A.** 0.951

**Q.** What about the relative viability (RERF-LC-KJ; first compound 1.265 µM) of the same compound?
**A.** 0.79

**Q.** And the relative viability (RERF-LC-KJ; first compound 4 µM)?
**A.** 0.822

**Q.** What about the relative viability (NCI-H1792; first compound 0.04 µM) of the same compound?
**A.** 0.648

**Q.** What about the relative viability (NCI-H1792; first compound 0.1265 µM) of the same compound?
**A.** 0.611

**Q.** What about the relative viability (NCI-H1792; first compound 0.4 µM) of the same compound?
**A.** 0.688

**Q.** And the relative viability (NCI-H1792; first compound 1.265 µM)?
**A.** 0.678

**Q.** And the relative viability (NCI-H1792; first compound 4 µM)?
**A.** 0.624

**Q.** What about the relative viability (NCI-H2170; first compound 0.04 µM) of the same compound?
**A.** 0.584

**Q.** What about the relative viability (NCI-H2170; first compound 0.1265 µM) of the same compound?
**A.** 0.674

**Q.** What about the relative viability (NCI-H2170; first compound 0.4 µM) of the same compound?
**A.** 0.621

**Q.** And the relative viability (NCI-H2170; first compound 1.265 µM)?
**A.** 0.51

**Q.** And the relative viability (NCI-H2170; first compound 4 µM)?
**A.** 0.589

**Q.** What about the relative viability (NCI-H2347; first compound 0.04 µM) of the same compound?
**A.** 0.861

**Q.** And the relative viability (NCI-H2347; first compound 0.1265 µM)?
**A.** 0.78

**Q.** What about the relative viability (NCI-H2347; first compound 0.4 µM) of the same compound?
**A.** 0.885

**Q.** What about the relative viability (NCI-H2347; first compound 1.265 µM) of the same compound?
**A.** 0.739

**Q.** And the relative viability (NCI-H2347; first compound 4 µM)?
**A.** 0.796

**Q.** And the relative viability (NCI-H1355; first compound 0.04 µM)?
**A.** 0.962

**Q.** And the relative viability (NCI-H1355; first compound 0.1265 µM)?
**A.** 0.927

**Q.** What about the relative viability (NCI-H1355; first compound 0.4 µM) of the same compound?
**A.** 1.01

**Q.** And the relative viability (NCI-H1355; first compound 1.265 µM)?
**A.** 0.875

**Q.** What about the relative viability (NCI-H1355; first compound 4 µM) of the same compound?
**A.** 0.917

**Q.** And the relative viability (NCI-H1755; first compound 0.04 µM)?
**A.** 1.06

**Q.** And the relative viability (NCI-H1755; first compound 0.1265 µM)?
**A.** 0.972

**Q.** What about the relative viability (NCI-H1755; first compound 0.4 µM) of the same compound?
**A.** 1.03

**Q.** And the relative viability (NCI-H1755; first compound 1.265 µM)?
**A.** 0.821

**Q.** What about the relative viability (NCI-H1755; first compound 4 µM) of the same compound?
**A.** 0.993

**Q.** What about the relative viability (NCI-H596; first compound 0.04 µM) of the same compound?
**A.** 0.972

**Q.** And the relative viability (NCI-H596; first compound 0.1265 µM)?
**A.** 1

**Q.** What about the relative viability (NCI-H596; first compound 0.4 µM) of the same compound?
**A.** 1.08

**Q.** What about the relative viability (NCI-H596; first compound 1.265 µM) of the same compound?
**A.** 0.767

**Q.** What about the relative viability (NCI-H596; first compound 4 µM) of the same compound?
**A.** 0.986

**Q.** What about the relative viability (NCI-H727; first compound 0.04 µM) of the same compound?
**A.** 0.428

**Q.** What about the relative viability (NCI-H727; first compound 0.1265 µM) of the same compound?
**A.** 0.403

**Q.** What about the relative viability (NCI-H727; first compound 0.4 µM) of the same compound?
**A.** 0.516

**Q.** What about the relative viability (NCI-H727; first compound 1.265 µM) of the same compound?
**A.** 0.407

**Q.** And the relative viability (NCI-H727; first compound 4 µM)?
**A.** 0.46

**Q.** What about the relative viability (NCI-H1651; first compound 0.04 µM) of the same compound?
**A.** 0.928

**Q.** And the relative viability (NCI-H1651; first compound 0.1265 µM)?
**A.** 1.09

**Q.** What about the relative viability (NCI-H1651; first compound 0.4 µM) of the same compound?
**A.** 1.11

**Q.** What about the relative viability (NCI-H1651; first compound 1.265 µM) of the same compound?
**A.** 1.02

**Q.** What about the relative viability (NCI-H1651; first compound 4 µM) of the same compound?
**A.** 1.08

**Q.** And the relative viability (SK-MES-1; first compound 0.04 µM)?
**A.** 1.2

**Q.** And the relative viability (SK-MES-1; first compound 0.1265 µM)?
**A.** 1.21

**Q.** And the relative viability (SK-MES-1; first compound 0.4 µM)?
**A.** 1.28

**Q.** What about the relative viability (SK-MES-1; first compound 1.265 µM) of the same compound?
**A.** 1.01

**Q.** What about the relative viability (SK-MES-1; first compound 4 µM) of the same compound?
**A.** 1.15

**Q.** And the relative viability (NCI-H1915; first compound 0.04 µM)?
**A.** 0.805

**Q.** And the relative viability (NCI-H1915; first compound 0.1265 µM)?
**A.** 0.796

**Q.** What about the relative viability (NCI-H1915; first compound 0.4 µM) of the same compound?
**A.** 0.771

**Q.** What about the relative viability (NCI-H1915; first compound 1.265 µM) of the same compound?
**A.** 0.794

**Q.** And the relative viability (NCI-H1915; first compound 4 µM)?
**A.** 0.779

**Q.** What about the relative viability (NCI-H460; first compound 0.04 µM) of the same compound?
**A.** 1.17

**Q.** And the relative viability (NCI-H460; first compound 0.1265 µM)?
**A.** 1.09

**Q.** What about the relative viability (NCI-H460; first compound 0.4 µM) of the same compound?
**A.** 1.11

**Q.** And the relative viability (NCI-H460; first compound 1.265 µM)?
**A.** 1.04

**Q.** And the relative viability (NCI-H460; first compound 4 µM)?
**A.** 1.11

**Q.** And the relative viability (NCI-H322M; first compound 0.04 µM)?
**A.** 1.22

**Q.** And the relative viability (NCI-H322M; first compound 0.1265 µM)?
**A.** 1.21

**Q.** And the relative viability (NCI-H322M; first compound 0.4 µM)?
**A.** 1.27

**Q.** What about the relative viability (NCI-H322M; first compound 1.265 µM) of the same compound?
**A.** 1.14

**Q.** What about the relative viability (NCI-H322M; first compound 4 µM) of the same compound?
**A.** 1.09

**Q.** And the relative viability (NCI-H3122; first compound 0.04 µM)?
**A.** 1.03

**Q.** What about the relative viability (NCI-H3122; first compound 0.1265 µM) of the same compound?
**A.** 1.02

**Q.** And the relative viability (NCI-H3122; first compound 0.4 µM)?
**A.** 1

**Q.** What about the relative viability (NCI-H3122; first compound 1.265 µM) of the same compound?
**A.** 1.06

**Q.** And the relative viability (NCI-H3122; first compound 4 µM)?
**A.** 1.02

**Q.** What about the relative viability (NCI-H520; first compound 0.04 µM) of the same compound?
**A.** 0.974

**Q.** What about the relative viability (NCI-H520; first compound 0.1265 µM) of the same compound?
**A.** 1.02

**Q.** What about the relative viability (NCI-H520; first compound 0.4 µM) of the same compound?
**A.** 1.1

**Q.** What about the relative viability (NCI-H520; first compound 1.265 µM) of the same compound?
**A.** 0.907

**Q.** What about the relative viability (NCI-H520; first compound 4 µM) of the same compound?
**A.** 1.06

**Q.** What about the relative viability (NCI-H441; first compound 0.04 µM) of the same compound?
**A.** 0.886

**Q.** What about the relative viability (NCI-H441; first compound 0.1265 µM) of the same compound?
**A.** 0.685

**Q.** And the relative viability (NCI-H441; first compound 0.4 µM)?
**A.** 0.469

**Q.** What about the relative viability (NCI-H441; first compound 1.265 µM) of the same compound?
**A.** 0.755

**Q.** What about the relative viability (NCI-H441; first compound 4 µM) of the same compound?
**A.** 0.54

**Q.** What about the relative viability (PC-14; first compound 0.04 µM) of the same compound?
**A.** 1.04

**Q.** What about the relative viability (PC-14; first compound 0.1265 µM) of the same compound?
**A.** 0.941

**Q.** And the relative viability (PC-14; first compound 0.4 µM)?
**A.** 1.07

**Q.** What about the relative viability (PC-14; first compound 1.265 µM) of the same compound?
**A.** 1.03

**Q.** And the relative viability (PC-14; first compound 4 µM)?
**A.** 0.997
